From the NIST ThermoML archive (doi:10.1016/j.jct.2015.04.027)

Test: xn = mol fraction of the nth substance listed
Details: 100 kPa, Liquid; for viscosity: Falling or rolling sphere viscometry; for mass density: Vibrating tube method

CN(C)C(=[NH2+])N(C)C.c1c[n-]cn1 [1,1,3,3-tetramethylguanidinium imidazol-1-ide] + CCCO
Details | mass density, 293.15 K [kg/m3] | mass density, 298.15 K [kg/m3] | mass density, 303.15 K [kg/m3] | mass density, 308.15 K [kg/m3] | mass density, 313.15 K [kg/m3] | viscosity, 293.15 K [mPa·s] | viscosity, 298.15 K [mPa·s] | viscosity, 303.15 K [mPa·s] | viscosity, 308.15 K [mPa·s] | viscosity, 313.15 K [mPa·s]
x1 = 0.0499 | 828.16 | 824.06 | 819.94 | 815.79 | 811.6 | 2.428 | 2.146 | 1.91 | 1.707 | 1.532
x1 = 0.0999 | 849.03 | 844.89 | 840.71 | 836.52 | 832.3 | 2.667 | 2.354 | 2.095 | 1.873 | 1.682
x1 = 0.2002 | 882.18 | 877.95 | 873.7 | 869.43 | 865.15 | 3.294 | 2.886 | 2.55 | 2.268 | 2.029
x1 = 0.2996 | 907.96 | 903.66 | 899.35 | 895.03 | 890.71 | 4.062 | 3.516 | 3.078 | 2.712 | 2.406
x1 = 0.4002 | 928.67 | 924.33 | 919.98 | 915.62 | 911.26 | 4.872 | 4.168 | 3.606 | 3.154 | 2.778
x1 = 0.4988 | 945.34 | 940.97 | 936.59 | 932.2 | 927.81 | 5.686 | 4.798 | 4.126 | 3.577 | 3.129
x1 = 0.6264 | 962.87 | 958.47 | 954.06 | 949.65 | 945.24 | 6.646 | 5.548 | 4.716 | 4.052 | 3.512
x1 = 0.8001 | 981.42 | 976.99 | 972.55 | 968.12 | 963.7 | 7.842 | 6.46 | 5.443 | 4.625 | 3.991
x1 = 0.9006 | 990.16 | 985.73 | 981.29 | 976.85 | 972.41 | 8.401 | 6.898 | 5.825 | 4.927 | 4.225
x1 = 1 | 997.25 | 992.8 | 988.35 | 983.9 | 979.46 | 8.952 | 7.287 | 6.044 | 5.097 | 4.358

CN(C)C(=[NH2+])N(C)C.c1c[n-]cn1 [1,1,3,3-tetramethylguanidinium imidazol-1-ide] + CO
Details | mass density, 293.15 K [kg/m3] | mass density, 298.15 K [kg/m3] | mass density, 303.15 K [kg/m3] | mass density, 308.15 K [kg/m3] | mass density, 313.15 K [kg/m3] | viscosity, 293.15 K [mPa·s] | viscosity, 298.15 K [mPa·s] | viscosity, 303.15 K [mPa·s] | viscosity, 308.15 K [mPa·s] | viscosity, 313.15 K [mPa·s]
x1 = 0.0501 | 840.28 | 835.36 | 830.44 | 825.51 | 820.57 | 0.905 | 0.829 | 0.765 | 0.709 | 0.659
x1 = 0.1005 | 872.86 | 868.04 | 863.19 | 858.35 | 853.49 | 1.272 | 1.108 | 1.014 | 0.931 | 0.859
x1 = 0.1957 | 912.69 | 907.98 | 903.25 | 898.51 | 893.76 | 1.979 | 1.768 | 1.592 | 1.442 | 1.314
x1 = 0.2953 | 938.06 | 933.41 | 928.74 | 924.08 | 919.38 | 2.761 | 2.423 | 2.148 | 1.918 | 1.724
x1 = 0.393 | 954.84 | 950.24 | 945.62 | 941 | 936.36 | 3.723 | 3.212 | 2.804 | 2.468 | 2.192
x1 = 0.5005 | 968.24 | 963.68 | 959.1 | 954.53 | 949.94 | 4.794 | 4.098 | 3.53 | 3.077 | 2.702
x1 = 0.6431 | 980.21 | 975.69 | 971.16 | 966.63 | 962.09 | 6.21 | 5.186 | 4.369 | 3.783 | 3.274
x1 = 0.7815 | 988.47 | 983.99 | 979.49 | 975 | 970.51 | 7.421 | 6.122 | 5.141 | 4.38 | 3.777
x1 = 0.8994 | 993.77 | 989.31 | 984.84 | 980.37 | 975.91 | 8.342 | 6.826 | 5.692 | 4.819 | 4.134
x1 = 1 | 997.25 | 992.8 | 988.35 | 983.9 | 979.46 | 8.952 | 7.287 | 6.044 | 5.097 | 4.358

CN(C)C(=[NH2+])N(C)C.c1c[n-]cn1 [1,1,3,3-tetramethylguanidinium imidazol-1-ide] + CCO
Details | mass density, 293.15 K [kg/m3] | mass density, 298.15 K [kg/m3] | mass density, 303.15 K [kg/m3] | mass density, 308.15 K [kg/m3] | mass density, 313.15 K [kg/m3] | viscosity, 293.15 K [mPa·s] | viscosity, 298.15 K [mPa·s] | viscosity, 303.15 K [mPa·s] | viscosity, 308.15 K [mPa·s] | viscosity, 313.15 K [mPa·s]
x1 = 0.0483 | 821.2 | 816.85 | 812.47 | 808.06 | 803.63 | 1.422 | 1.289 | 1.174 | 1.072 | 0.982
x1 = 0.0999 | 848.92 | 844.52 | 840.1 | 835.66 | 831.19 | 1.714 | 1.548 | 1.405 | 1.28 | 1.17
x1 = 0.2003 | 888.15 | 883.71 | 879.24 | 874.77 | 870.28 | 2.371 | 2.114 | 1.897 | 1.711 | 1.549
x1 = 0.3001 | 916.24 | 911.78 | 907.3 | 902.82 | 898.33 | 3.145 | 2.755 | 2.438 | 2.173 | 1.949
x1 = 0.3999 | 937.23 | 932.77 | 928.29 | 923.8 | 919.31 | 4.057 | 3.498 | 3.054 | 2.69 | 2.388
x1 = 0.5 | 953.33 | 948.83 | 944.31 | 939.83 | 935.34 | 5.057 | 4.296 | 3.643 | 3.174 | 2.822
x1 = 0.643 | 970.7 | 966.31 | 961.81 | 957.39 | 952.91 | 6.351 | 5.318 | 4.452 | 3.891 | 3.384
x1 = 0.7966 | 984.34 | 979.99 | 975.53 | 971.06 | 966.6 | 7.695 | 6.345 | 5.333 | 4.539 | 3.911
x1 = 0.8987 | 991.38 | 986.93 | 982.47 | 978.02 | 973.57 | 8.46 | 6.936 | 5.786 | 4.909 | 4.229
x1 = 1 | 997.25 | 992.8 | 988.35 | 983.9 | 979.46 | 8.952 | 7.287 | 6.044 | 5.097 | 4.358

CN(C)C(=[NH2+])N(C)C.c1c[n-]cn1 [1,1,3,3-tetramethylguanidinium imidazol-1-ide] + CCCCO
Details | mass density, 293.15 K [kg/m3] | mass density, 298.15 K [kg/m3] | mass density, 303.15 K [kg/m3] | mass density, 308.15 K [kg/m3] | mass density, 313.15 K [kg/m3] | viscosity, 293.15 K [mPa·s] | viscosity, 298.15 K [mPa·s] | viscosity, 303.15 K [mPa·s] | viscosity, 308.15 K [mPa·s] | viscosity, 313.15 K [mPa·s]
x1 = 0.0499 | 828.74 | 824.87 | 820.97 | 817.04 | 813.07 | 3.053 | 2.7 | 2.399 | 2.141 | 1.92
x1 = 0.1004 | 845.73 | 841.79 | 837.82 | 833.83 | 829.83 | 3.248 | 2.868 | 2.549 | 2.276 | 2.04
x1 = 0.1999 | 875.01 | 870.95 | 866.87 | 862.77 | 858.67 | 3.727 | 3.272 | 2.89 | 2.569 | 2.298
x1 = 0.2997 | 899.57 | 895.41 | 891.24 | 887.07 | 882.9 | 4.41 | 3.801 | 3.323 | 2.931 | 2.604
x1 = 0.3985 | 920.24 | 916.05 | 911.78 | 907.55 | 903.31 | 5.155 | 4.414 | 3.823 | 3.343 | 2.948
x1 = 0.4997 | 938.26 | 933.99 | 929.7 | 925.4 | 921.09 | 6.003 | 5.029 | 4.322 | 3.751 | 3.286
x1 = 0.6499 | 960.31 | 955.97 | 951.62 | 947.27 | 942.92 | 7.076 | 5.887 | 5 | 4.267 | 3.737
x1 = 0.8002 | 978.39 | 974 | 969.59 | 965.19 | 960.8 | 8.02 | 6.617 | 5.547 | 4.739 | 4.097
x1 = 0.9004 | 988.56 | 984.14 | 979.72 | 975.28 | 970.84 | 8.6 | 7.032 | 5.877 | 5.021 | 4.299
x1 = 1 | 997.25 | 992.8 | 988.35 | 983.9 | 979.46 | 8.952 | 7.287 | 6.044 | 5.097 | 4.358
